# Assay results published in BindingDB's records for doi:10.1021/ml300214g (2012).
# Assay: Inhibition of CSF1R in mouse M-NFS-60 cells assessed as inhibition of cell proliferation after 72 hrs by Celltiter-Blue assay
row,Compound,IC50 [nM]
1,CN1C(C)(C)CC(Oc2ccc(C(=O)Nc3ccc(NC(=O)Nc4cc(C(C)(C)C)on4)cc3)nc2)CC1(C)C,50.4
2,CCN1C(C)(C)CC(Oc2ccc(C(=O)Nc3ccc(NC(=O)Nc4cc(C(C)(C)C)on4)cc3)nc2)CC1(C)C,46.3
3,CC(C)(C)c1cc(NC(=O)Nc2ccc(NC(=O)c3ccc(OC4CCN(C5CC5)CC4)cn3)cc2)no1,150
4,CC(C)(C)c1cc(NC(=O)Nc2ccc(NC(=O)c3ccc(OC4CCN(C(C)(C)C)CC4)cn3)cc2)no1,64.4
5,CC(C)N1CCC(Oc2ccc(C(=O)Nc3ccc(NC(=O)Nc4cc(C(C)(C)C)on4)cc3)nc2)CC1,78
6,Cc1ccc(C(=O)Nc2ccc(NC(=O)Nc3cc(C(C)(C)C)on3)cc2)nc1,223
7,Cc1ccnc(C(=O)Nc2ccc(NC(=O)Nc3cc(C(C)(C)C)on3)cc2)c1,63.9
8,CC1(C)CC(Oc2ccc(C(=O)Nc3ccc(NC(=O)Nc4cc(C(C)(C)C)on4)cc3)nc2)CC(C)(C)N1,74.7
